Each compound was assayed on breast cancer cell line ZR-75-1 (assay: Inhibition of proliferation of breast cancer cell line ZR-75-1 (CellTiter-Glo)). Details: Homo sapiens, 240 h, proliferation of ZR-75-1 cells, 10 days of incubation, read-out: IC50 (KAT6A).
Format: cell-based

Structure (SMILES)	IC50 [pM]
COc1ccc2c(c1S(=O)(=O)Nc1noc3cc(Cn4cccn4)c(F)c(OC)c13)OCCO2 [Compound 28, N-(6-((1H-Pyrazol-1-yl)methyl)-5-fluoro-4-methoxybenzo[d]isoxazol-3-yl)-6-methoxy-2,3-dihydrobenzo[b][1,4]dioxine-5-sulfonamide]	< 500
COc1ccc2c(c1S(=O)(=O)Nc1noc3cc(Cn4cccn4)c(F)c(OC)c13)OCCC2=O [Compound 42, N-(6-((1H-Pyrazol-1-yl)methyl)-5-fluoro-4-methoxybenzo[d]isoxazol-3-yl)-7-methoxy-4-oxochromane-8-sulfonamide]	< 500
COc1ccc2c(c1S(=O)(=O)Nc1noc3cc(Cn4cccn4)c(F)c(OC)c13)OCC=C2 [Compound 101, N-(6-((1H-Pyrazol-1-yl)methyl)-5-fluoro-4-methoxybenzo[d]isoxazol-3-yl)-7-methoxy-2H-chromene-8-sulfonamide]	< 500
COc1ccc2c(c1S(=O)(=O)Nc1noc3cc(Cn4cccn4)c(F)c(OC)c13)OCCN2C [Compound 109, N-(6-((1H-Pyrazol-1-yl)methyl)-5-fluoro-4-methoxybenzo[d]isoxazol-3-yl)-7-methoxy-4-methyl-3,4-dihydro-2H-benzo[b][1,4]oxazine-8-sulfonamide]	< 500
COc1ccccc1S(=O)(=O)Nc1noc2cc(Cn3cccn3)cc(OC)c12 [PF-8144, reference compound]	500 to 2000

Reference: patent US20260174778A1, “SULFONAMIDE COMPOUND, AND PREPARATION METHOD THEREFOR AND USE THEREOF” (SHANGHAI HENLIUS BIOTECH, INC., priority 2023, published 2026)
